Patent publication US10881729B2, “Vaccine adjuvant compositions” (CHILDREN'S MEDICAL CENTER CORPORATION, priority 2014, dated 2021)

Tests used:
[1] = cited from earlier work
newborn MoDCs = assay: TNF-α ELISA of supernatants of stimulated newborn MoDCs; type: cell-based, human; conditions: for TNF production in response to single TLR agonist, newborn compared to adult MoDCs: newborn vs adult MoDCs, FIG. 2
Method: Isolated monocytes were seeded in 75 cm^2 tissue culture dishes for 5 days at 37° C. in a humidified incubator at 5% CO2 with 10^6 cells/ml medium. Medium consisted of RPMI 1640 medium with L-glutamine (GIBCO—LIFE TECHNOLOGIES, Carlsbad, Calif., USA) supplemented with 1% Penicillin-Streptomycin-Glutamine (PSG) (Invitrogen—Life Technologies, Carlsbad, Calif., USA) and 10% AP. This was supplemented with recombinant human (rh) IL-4 and rhGM-CSF (50 ng/ml and 100 ng/ml, respectively; R&D Systems, Minneapolis, Minn., USA). Additional fresh media and cytokines were provided on day 3 of incubation.
After 5 days, immature MoDCs were harvested by gently pipetting only the loosely adherent fraction and re-plated (10^5 cells/well) in 96-well U-bottom plates in the presence or absence of TLRAs, and/or CLRAs, and/or sterile DPBS. This MoDC array was then incubated for 18-24 hours at 37° C. in a humidified incubator at 5% CO2. After this stimulation MoDCs were harvested and processed for further functional assays. (FIG. 2).
Supernatants from MoDCs (GCI-DCs) stimulated for 18 hours in a humidified incubator (37° C., 5% CO2) with TLRAs, and/or CLRAs were analyzed for TNF-α production. For this, a human TNF enzyme-linked immunosorbent assay (ELISA) kit was used, and assay was performed according to manufacturer's instruction. (BD Biosciences, BD Biosciences, San Jose, Calif., USA). Results were read on a Versamax microplate reader with SoftMax Pro Version 5 (both from Molecular Devices, Sunnyville, Calif., USA).
The inventors further evaluated the ability of these two combinations of agonists to activate newborn MoDCs by establishing concentration-response curves and by investigating whether the enhancement in TNF secretion can be observed with similar agonists that activate the same receptors. In addition, the concentration-response curves were used to mathematically assess whether the observed enhancement by combining agonists is equal to the sum of the effects observed with individual agonists (i.e., was additive) or if these agonists activate the newborn cells synergistically. A modification of the Loewe definition of additivity was applied to determine whether the agonists act synergistically (D<1), additively (D=1) or antagonistically (D>1), where D=[Ac]/[Ae]+[Bc]/[Be], and [Ac] and [Bc] are the concentrations of compound A and B used in the dual (combined) stimulation and [Ae] and [Be] are the concentrations of A and B that induce an equal amount of TNF secretion alone.

newborn and adult MoDCs = assay: Gene expression by quantitative RT-PCR array, MPLA-stimulated newborn versus adult MoDCs; type: cell-based, human
Method: Total ribonucleic acid (RNA) of newborn and adult MoDCs (GCI-DCs and TC-DCs) was isolated with the miRNeasy kit, according to manufacturer's instructions (QIAGEN®, Inc., Valencia, Calif., USA) Total RNA from both un-stimulated cells and cells stimulated with 1 μg/ml MPLA was isolated. RNA quality was analyzed for quality and quantity by using a NanoDrop 1000 spectrophotometer (Thermo Scientific, Wilmington, Del., USA). Complementary deoxyribonucleic acid (cDNA) was prepared from total RNA from each sample with a miScript II RT Kit, according to manufacturer's instructions (QIAGEN®, Inc., Valencia, Calif., USA). cDNA was quantified on a PAHS-052Z plate (QIAGEN®, Inc., Valencia, Calif., USA). Quantitative real time-polymerase chain reaction (RT-PCR) was run on a 7300 real time PCR system (APPLIED BIOSYSTEMS®—Life Technologies, Life Technologies, Carlsbad, Calif., USA).

Compound: CCOCc1nc2c(N)nc3ccccc3c2[nH]1 [CL097, 2-(ethoxymethyl)-1 H-imidazo[4,5-c]quinolin-4-amine]
- water solubility [1]: highly water-soluble

Compound: Pam3Cys
- TNF production in response to single TLR agonist, newborn compared to adult MoDCs (newborn MoDCs): less TNF

Compound: Polyinosinic:polycytidylic acid [Poly I:C]
- TNF production in response to single TLR agonist, newborn compared to adult MoDCs (newborn MoDCs): less TNF

Compound: glycopyranosyl lipid A [GLA]
- synergy in TNF production with the partner agonist named in the sentence (newborn MoDCs; newborn MoDCs, VTX-294 for R848 (with TDB), GLA for MPLA (with Zymosan), BGP for Zymosan, Zymosan with MPLA or GLA): also present

Compound: monophosphoryl lipid A [MPLA]
- TNF production in response to single TLR agonist, newborn compared to adult MoDCs (newborn MoDCs): less TNF
- TNF gene expression, adults compared to newborns (newborn and adult MoDCs; MPLA 1 μg/ml, 24 hours): 2 fold
- IL-6 and IL-10, newborn MoDCs compared to adult MoDCs (newborn and adult MoDCs; MPLA treatment, FIG. 1): more
- expression levels of IRF7 and IRAK1, adult MoDCs compared to newborn (newborn and adult MoDCs; MPLA treatment, FIG. 1): higher
- IL6 and CXCL-8 (IL8) gene expression, newborn MoDCs compared to adult MoDCs (newborn and adult MoDCs; after treatment with MPLA): greater
- expression of IRF7, IRAK1 and NFKB1, adult MoDCs compared to newborn (newborn and adult MoDCs; after treatment with MPLA): greater
